Assays:
sPLA2 contraction = biological target: T1, sPLA2 contraction (Homo sapiens, UniProt P14555); experiment: sPLA2-induced contraction of guinea pig lung pleural strips, tissue test (Assay Example 2); parameters: species or system Male Hartley strain guinea pigs; settings: guinea pig, sPLA2 10 ug/ml; for inhibition at 10 µM: compound concentration 10 uM, read-out: % suppression of sPLA2 contraction at 10 uM; for inhibition at 30 µM: compound concentration 30 uM, read-out: % suppression of sPLA2 contraction at 30 uM
T1 sequence (P14555 21-144): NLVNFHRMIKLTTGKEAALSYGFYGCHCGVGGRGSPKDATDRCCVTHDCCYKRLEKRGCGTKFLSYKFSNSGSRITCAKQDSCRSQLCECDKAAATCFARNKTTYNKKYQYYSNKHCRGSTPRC
Description: Male Hartley strain guinea pigs (500-700 g) were killed by cervical dislocation and their heart and lungs removed intact and placed in aerated (95% O2 :5% CO2) Krebs buffer. Dorsal pleural strips (4×1×25 mm) were dissected from intact parenchymal segments (8×4×25 mm) cut parallel to the outer edge of the lower lung lobes. Two adjacent pleural strips, obtained from a single lobe and representing a single tissue sample, were tied at either end and independently attached to a metal support rod. One rod was attached to a Grass force-displacement transducer (Model FTO3C, product of Grass Medical Instruments Co., Quincy, Mass., USA). […] All tissues were placed in 10 ml jacketed tissue baths maintained at 37° C. The tissue baths were continuously aerated and contained a modified Krebs solution of the following composition (millimolar) NaCl, 118.2; KCl, 4.6; CaCl2.2H2 O, 2.5; MgSO4.7H2 O, 1.2; NaHCO3, 24.8; KH2 PO4, 1.0; and dextrose, 10.0. Pleural strips from the opposite lobes of the lung were used for paired experiments. […] The tissues were allowed to equilibrate for 45 min. as the bath fluid was changed periodically. Cumulative concentration-response curves: Initially tissues were challenged 3 times with KCl (40 mM) to test tissue viability and to obtain a consistent response. After recording the maximal response to KCl the tissues were washed and allowed to return to baseline before the next challenge. Cumulative concentration-response curves were obtained from pleural strips by increasing the agonist concentration (sPLA2) in the tissue bath by half-log10 increments while the previous concentration remained in contact with the tissues (Ref.1, supra.) Agonist concentration was increased after reaching the plateau of the contraction elicited by the preceding concentration. One concentration-response curve was obtained from each tissue. To minimize variability between tissues obtained from different animals, contractile responses were expressed as a percentage of the maximal response obtained with the final KCl challenge. When studying the effects of various drugs on the contractile effects of sPLA2, the compounds and their respective vehicles were added to the tissues 30 min. prior to starting the sPLA2 concentration-response curves. statistical analysis: Data from different experiments were pooled and presented as a percentage of the maximal KCl responses (mean±S.E.). To estimate the drug induced rightward shifts in the concentration response curves, the curves were analyzed simultaneously using statistical nonlinear modeling methods similar to those described by Waud (1976), Equation 26, p. 163, (Ref.2). The model includes four parameters: the maximum tissue response which was assumed the same for each curve, the ED50 for the control curve, the steepness of the curves, and the PA2, the concentration of antagonist that requires a two-fold increase in agonist to achieve an equivalent response. The Schild slope was determined to be 1, using statistical nonlinear modeling methods similar to those described by Waud (1976), Equation 27, p. 164 (Ref. 2). […] To estimate the drug-induced suppression of the maximal responses, sPLA2 responses (10 ug/ml) were determined in the absence and presence of drug, and percent suppression was calculated for each pair of tissues. Ref. 1--van Rossum, J. M.: Cumulative dose-response curves. II. Technique for the making of dose-response curves in isolated organs and the evaluation of drug parameters. Arch. Int. Pharmacodyn. Ther. 143: 299-330, 1963. Ref. 2--Waud, D.: Analysis of dose-response relationships. in Advances in General and Cellular Pharmacology […]

human secreted PLA2 = biological target: T2, human secreted PLA2 (Homo sapiens, UniProt P14555); experiment: chromogenic assay of recombinant human secreted phospholipase A2 inhibition (Assay Example 1); type: biochemical; settings: mean of 3-5 tests; 40° C., 30 minutes, pH 7.5, 405 nanometers; read-out: Inhibition of human secreted PLA2 IC50 ± mean deviation (3-5 tests)
T2 sequence (P14555 21-144): T1 sequence (P14555 21-144)
Description: The assay described herein has been adapted for high volume screening using 96 well microtiter plates. A general description of this assay method is found in the article, "Analysis of Human Synovial Fluid Phospholipase A2 on Short Chain Phosphatidylcholine-Mixed Micelles: Development of a Spectrophotometric Assay Suitable for a Microtiterplate Reader", by Laure J. Reynolds, Lori L. […] Reagents, the disclosure of which is incorporated herein by reference. REACTION BUFFER CaCl2.2H20 (1.47 g/L) KCl (7.455 g/L) Bovine Serum Albumin (fatty acid free) (1 g/L) (Sigma A-7030, product of Sigma Chemical Co. St. Louis Mo., USA) TRIS HCl (3.94 g/L) pH 7.5 (adjust with NaOH) ENZYME BUFFER […] 0.2 NaCl Adjust pH to 4.5 with acetic acid DTNB […] RACEMIC DIHEPTANOYL THIO - PC […] TRITON X-100™ prepare at 6.249 mg/ml in reaction buffer to equal […]. REACTION MIXTURE A measured volume of racemic dipheptanoyl thio PC supplied in chloroform at a concentration of 100 mg/ml is taken to dryness and redissolved in 10 millimolar TRITON X-100™ nonionic detergent aqueous solution. Reaction Buffer is added to the solution, then DTNB to give the Reaction Mixture. The reaction mixture thus obtained contains 1 mM diheptanoly thio-PC substrate, 0.29 mM Triton X-100™ detergent, and 0.12 mM DTMB in a buffered aqueous solution at pH 7.5. Assay Procedure: 1. Add 0.2 ml reaction mixture to all wells; 2. Add 10 ul test compound (or solvent blank) to appropriate wells, mix 20 seconds; 3. Add 50 nanograms of sPLA2 (10 microliters) to appropriate wells; 4. Incubate plate at 40° C. for 30 minutes; […] Read absorbance of wells at 405 nanometers with an automatic plate reader. All compounds were tested in triplicate. Typically, compounds were tested at a final concentration of 5 ug/ml. […] Lack of color development at 405 nanometers evidenced inhibition. Compounds initially found to be active were reassayed to confirm their activity and, if sufficiently active, IC50 values were determined. […] In all cases, % inhibition measured at 405 nanometers generated by enzyme reactions containing inhibitors relative to the uninhibited control reactions was determined. Each sample was titrated in triplicate and result values were averaged for plotting and calculation of IC50 values. […] IC50 values were determined at least three times for each compound tested.

| Compound | inhibition at 10 µM (sPLA2 contraction) [%] | inhibition at 30 µM (sPLA2 contraction) [%] | IC50 (human secreted PLA2) [nM] |
| --- | --- | --- | --- |
| COc1ccc2c(c1)c(CC(=O)NN)c(C)n2Cc1cccc(-c2ccccc2)c1 [Example 25, 1-([1,1'-Biphenyl]-3-ylmethyl)-5-methoxy-2-methyl-1H-indole-3-acetic acid hydrazide] | – | 7.3 ± 9.9 | 940 ± 330 |
| CCc1c(CC(=O)NN)c2cc(OC3CCCC3)ccc2n1Cc1ccccc1 [Example 2, 5-Cyclopentoxy-2-ethyl-1-(phenylmethyl)-1H-indole-3-acetic acid hydrazide] | – | 60.5 ± 12.8 | 470 ± 150 |
| COc1ccc2c(c1)c(CC(=O)NN)c(C)n2Cc1ccccc1-c1ccccc1 [Example 24, 1-([1,1'-Biphenyl]-2-ylmethyl)-5-methoxy-2-methyl-1H-indole-3-acetic acid hydrazide] | – | -4.2 ± 6.2 | 260 ± 80 |
| COc1ccc2c(c1)c(CC(=O)NN)c(C)n2Cc1ccncc1 [Example 39, 5-Methoxy-2-methyl-1-[(4-pyridyl)methyl]-1H-indole-3-acetic acid hydrazide] | – | – | 45900 ± 13100 |
| 5-Methoxy-2-methyl-1-(phenylmethyl)-1H-indole-3-propanoic acid hydrazide [Example 65] | – | – | 32600 |
| COc1ccc2c(c1)c(CC(=O)NN)c(C)n2Cc1cc(Cl)ccc1Cl [Example 20, 1-(2,5-Dichlorophenylmethyl)-5-methoxy-2-methyl-1H-indole-3-acetic acid hydrazide] | – | – | 9390 ± 2300 |
| COc1ccc2c(c1)c(CC(=O)NN)c(C)n2Cc1ccc(OCc2ccccc2)cc1 [Example 32, 1-[(4-Benzyloxyphenyl)methyl]-5-methoxy-2-methyl-1H-indole-3-acetic acid hydrazide] | – | – | 2280 ± 570 |
| COc1ccc2c(c1)c(CC(=O)NN)c(C)n2Cc1cccc(C)c1 [Example 22, 5-Methoxy-1-[(3-methylphenyl)methyl]-2-methyl-1H-indole-3-acetic acid hydrazide] | – | – | 1540 ± 670 |
| COc1ccc2c(c1)c(CC(=O)NN)c(C)n2Cc1c(Cl)cccc1Cl [Example 21, 1-(2,6-Dichlorophenylmethyl)-5-methoxy-2-methyl-1H-indole-3-acetic acid hydrazide] | – | – | 640 ± 190 |
| Cc1c(CC(=O)NN)c2cc(-c3ccccc3)ccc2n1Cc1cccc(OCc2ccccc2)c1 [Example 58, 1-[(3-Benzyloxyphenyl)methyl]-2-methyl-5-phenyl-1H-indole-3-acetic acid hydrazide] | – | – | 2210 ± 1160 |

Further compounds by falling IC50 (human secreted PLA2), results first:

| inhibition at 10 µM (sPLA2 contraction) [%] | inhibition at 30 µM (sPLA2 contraction) [%] | IC50 (human secreted PLA2) [nM] | Compound |
| --- | --- | --- | --- |
| – | – | 84200 ± 19400 | COc1ccc2c(c1)c(CC(=O)NN)c(C)n2Cc1cccnc1 [Example 38, 5-Methoxy-2-methyl-1-[(3-pyridyl)methyl]-1H-indole-3-acetic acid hydrazide] |
| – | – | 24200 ± 10700 | 5-Methoxy-2-methyl-1-(phenylmethyl)-1H-indole-3-butanoic acid hydrazide [Example 67] |
| – | – | 11100 ± 1800 | COc1ccc2ccccc2c1Cn1c(C)c(CC(=O)NN)c2ccccc21 [Example 11, 1-(2-Methoxy-1-naphthalenylmethyl)-2-methyl-1H-indole-3-acetic acid hydrazide] |
| – | – | 7080 ± 1610 | CCCCCCCCCCn1c(C)c(CC(=O)NN)c2cc(OC)ccc21 [Example 14, 1-Decyl-5-methoxy-2-methyl-1H-indole-3-acetic acid hydrazide] |
| – | – | 3260 ± 1740 | COc1ccc2c(c1)c(CC(=O)NN)c(C)n2Cc1ccccc1OC [Example 26, 5-Methoxy-1-[(2-methoxyphenyl)methyl]-2-methyl-1H-indole-3-acetic acid hydrazide] |
| – | 47.5 ± 13.4 | 3000 ± 1400 | COc1ccc2c(c1)c(CC(=O)NN)c(C)n2Cc1cccc(O)c1 [Example 31, 1-[(3-Hydroxyphenyl)methyl]-5-methoxy-2-methyl-1H-indole-3-acetic acid hydrazide] |
| – | 45.1 ± 6.8 | 2470 ± 640 | Cc1c(CC(=O)NN)c2cc(C(=O)NN)ccc2n1Cc1ccccc1 [Example 70, 5-Hydrazinocarbonyl-2-methyl-1-(phenylmethyl)-1H-indole-3-acetic acid hydrazide] |
| – | – | 1630 ± 740 | Cc1c(CC(=O)NN)c2cc(Cl)ccc2n1Cc1cccc(Cl)c1 [Example 49, 5-Chloro-[(3-chlorophenyl)methyl]-2-methyl-1H-indole-3-acetic acid hydrazide] |
| – | – | 1340 ± 440 | Cc1c(CC(=O)NN)c2cc(Br)ccc2n1Cc1cccc(-c2ccccc2)c1 [Example 51, 1-([1,1'-biphenyl]-3-ylmethyl)-5-bromo-2-methyl-1H-indole-3-acetic acid hydrazide] |
| – | 66.3 ± 5.9 | 930 ± 550 | Cc1c(CC(=O)NN)c2ccc(-c3ccccc3)cc2n1Cc1ccccc1 [Example 57, 2-Methyl-6-phenyl-1-(phenylmethyl)-1H-indole-3-acetic acid hydrazide] |
| 55.2 ± 6.6 | 83.9 ± 3.2 | 860 ± 120 | COc1ccc2c(c1)c(CC(=O)NN)c(C)n2Cc1ccccc1 [Example 16, 5-Methoxy-2-methyl-1-(phenylmethyl)-1H-indole-3-acetic acid hydrazide] |
| – | – | 760 ± 350 | Cc1ccc2c(c1)c(CC(=O)NN)c(C)n2Cc1ccccc1 [Example 59, 2,5-Dimethyl-1-(phenylmethyl)-1H-indole-3-acetic acid hydrazide] |
| 21.4 | 60.9 ± 9.7 | 610 ± 220 | COc1ccc2c(c1)c(CC(=O)NN)c(C)n2Cc1cccc(OCc2ccccc2)c1 [Example 30, 1-[(3-Benzyloxyphenyl)methyl]-5-methoxy-2-methyl-1H-indole-3-acetic acid hydrazide] |
| – | – | 600 ± 130 | COc1ccc2c(c1)c(CC(=O)NN)c(SC)n2Cc1ccccc1 [Example 45, 5-Methoxy-2-methylthio-1-(phenylmethyl)-1H-indole-3-acetic acid hydrazide] |
